Measured values taken from patent US12590062B2, “PD-1/PD-L1 inhibitors” (Gilead Sciences, Inc., priority 2017, dated 2026).

Tests used:
PD-L1 = target: T1, PD-L1 (Homo sapiens, UniProt Q9NZQ7); assay: PD-L1/PD-L1 dimerization biochemical protein-protein interaction assay (ALPHA); assay type: binding; details: compound-induced PD-L1 dimerization, head prints '1 nM' (0.5 nM His-tagged PD-L1 and 0.5 nM FLAG-tagged PD-L1), read-out: AC50 PDL1 Dimer Alpha 1 nM
T1 construct: determine if they can specifically dimerize the extracellular domains of PD-L1
T1 sequence (Q9NZQ7 19-238 limits assumed): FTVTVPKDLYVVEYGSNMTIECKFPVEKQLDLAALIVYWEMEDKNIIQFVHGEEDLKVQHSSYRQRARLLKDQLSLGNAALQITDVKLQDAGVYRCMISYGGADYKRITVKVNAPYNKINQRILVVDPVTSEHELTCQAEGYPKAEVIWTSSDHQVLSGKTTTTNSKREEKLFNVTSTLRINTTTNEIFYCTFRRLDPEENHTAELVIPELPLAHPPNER
T1 sequence (Q9NZQ7 19-238 limits assumed): as above
Experimental: PD-L1/PD-L1 Dimerization Biochemical Protein-Protein Interaction Assay:
Compounds were tested in biochemical protein-protein interaction assays to determine if they can specifically dimerize the extracellular domains of PD-L1. Dimerization of the proteins (His-tagged PD-L1 and FLAG-tagged PD-L1) is measured using a bead based Amplified Luminescent Proximity Homogeneous Assay (ALPHA) platform. […] Assays are performed in 25 mM Hepes (pH 7.4), 150 mM NaCl, 3.4 mM EDTA, 0.005% Tween 20, and 0.01% BSA. Final protein concentration in the assays were 0.5 nM (His tagged PD-L) and 0.5 nM (FLAG tagged PD-L1). After an assay reaction time of 2 hours at 25° C., 20 μg/mL (final assay concentration) ALPHA assay acceptor beads (anti-His coated) were added and incubated for 60 minutes at 25° C. Binding was measured following a final 60 minute incubation with 40 μg/mL (final assay concentration) ALPHA assay donor beads (anti-FLAG coated). AC50 values were calculated from the fit of the dose-response curves to a four-parameter equation (Table 3).

PD-1/PD-L1 interaction = target: T2, PD-1/PD-L1 interaction (Homo sapiens, UniProt Q9NZQ7); assay: PD-1/PD-L1 NFAT reporter co-culture assay; assay type: cell-based; details: Jurkat PD-1 NFAT-luciferase cells co-cultured with aAPC-PD-L1 CHO cells, 6 hrs at 37° C.; read-out: EC50 NFAT Luciferase
T2 construct: expressed in transfected cells; host or cells: CHO cells (aAPC-PD-L1) co-cultured with Jurkat cells overexpressing PD-1 and an NFAT-luciferase reporter
T2 sequence (Q9NZQ7 19-290): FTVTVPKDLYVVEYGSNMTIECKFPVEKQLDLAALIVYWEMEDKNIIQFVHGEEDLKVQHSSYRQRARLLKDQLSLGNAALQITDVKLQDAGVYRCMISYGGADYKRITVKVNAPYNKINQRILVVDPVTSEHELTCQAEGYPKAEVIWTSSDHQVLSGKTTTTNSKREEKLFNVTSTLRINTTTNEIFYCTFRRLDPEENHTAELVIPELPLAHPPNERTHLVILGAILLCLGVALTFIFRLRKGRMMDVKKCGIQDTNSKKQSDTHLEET
Procedure, shortened: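 Jurkat cells overexpressing PD-1 with NFAT-driven luciferase were mixed with compound in RPMI 1640/2% FBS and seeded onto overnight-plated CHO aAPC-PD-L1 cells expressing surface anti-CD3 and PD-L1. Co-culture ran 6 h at 37 °C; luminescence read with ONE-Glo; EC50 from four-parameter fit.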

PD-1/PD-L1 = PD-1/PD-L1 (Homo sapiens, UniProt Q9NZQ7); assay: PD-1/PD-L1 biochemical protein-protein interaction assay (ALPHA); assay type: binding; details: 0.3 nM His tagged PD-L1, 2.5 nM biotinylated Fc-PD-1, 60 minutes at 25° C., read-out: IC50 PD-L1-PD-1 Alpha IC50-mono PD-L1-fcP-D1
Chain of PD-1/PD-L1 (Q9NZQ7 19-238 limits assumed): as the sequence (Q9NZQ7 19-238 limits assumed) above
Procedure, shortened: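 IC50 values derive from four-parameter fits of ALPHA signal decrease. Assay: 0.3 nM His-tagged PD-L1 with 2.5 nM biotinylated Fc-PD-1, Hepes pH 7.4 with 0.005% Tween 20 and 0.01% BSA, 60 min at 25° C, then anti-His acceptor and streptavidin donor beads.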

| SMILES | AC50 (PD-L1) [nM] | EC50 (PD-1/PD-L1 interaction) [nM] | IC50 (PD-1/PD-L1) [nM] |
| --- | --- | --- | --- |
| Cc1c(OCc2cc(OCc3cncc(C#N)c3)c(CN[C@@](C)(CO)C(=O)O)cc2Cl)cccc1-c1cccc(-c2ccc(OCCN[C@@](C)(CO)C(=O)O)cc2)c1C [Example 388, (S)-2-((4-(((4″-(2-(((S)-2-carboxy-1-hydroxypropan-2-yl)amino)ethoxy)-2,2′-dimethyl-[1,1′:3′,1″-terphenyl]-3-yl)oxy)methyl)-5-chloro-2-((5-cyanopyridin-3-yl)methoxy)benzyl)amino)-3-hydroxy-2-methylpropanoic acid] | ≥ 10000 | 225 | – |
| Cc1c(COc2cc(OCc3cncc(C#N)c3)c(CN[C@@](C)(CO)C(=O)O)cc2Cl)cccc1-c1cccc(-c2ccc(S(N)(=O)=O)cc2)c1C [Example 564] | – | 80 | 0.293 |
| COC1CN(C2CCc3cc(-c4cccc(-c5cccc(COc6cc(OCc7cncc(C#N)c7)c(CN[C@@](C)(CO)C(=O)O)cc6Cl)c5C)c4C)ccc32)C1 (some centres unmarked) [Example 585] | – | 182 | 0.098 |
| COc1nc(O[C@@H]2c3cccc(-c4cccc5c4C[C@@H](F)[C@@H]5Oc4nc(OC)c(CNC[C@@H](O)CC(=O)O)cc4Cl)c3C[C@H]2F)c(Cl)cc1CNC[C@@H](O)CC(=O)O [Example 639, (3S,3′S)-4,4′-((((((1R,1′R,2R,2′R)-2,2′-difluoro-2,2′,3,3′-tetrahydro-1H,1′H-[4,4′-biindene]-1,1′-diyl)bis(oxy))bis(5-chloro-2-methoxypyridine-6,3-diyl))bis(methylene))bis(azanediyl))bis(3-hydroxybutanoic acid)] | – | 942 | 1.85 |
| COc1nc(O[C@@H]2c3cccc(-c4cccc5c4C[C@H](F)[C@@H]5Oc4nc(OC)c(CNC[C@@H](O)CC(=O)O)cc4Cl)c3C[C@@H]2F)c(Cl)cc1CNC[C@@H](O)CC(=O)O [Example 640, (3S,3′S)-4,4′-((((((1R,1′R,2S,2′S)-2,2′-difluoro-2,2′,3,3′-tetrahydro-1H,1′H-[4,4′-biindene]-1,1′-diyl)bis(oxy))bis(5-chloro-2-methoxypyridine-6,3-diyl))bis(methylene))bis(azanediyl))bis(3-hydroxybutanoic acid)] | – | ≥ 50000 | 1.09 |
| O=C(O)C[C@H](O)CNCc1ccc(OC2CCc3c(-c4cccc5c4CCC5Oc4ccc(CNC[C@@H](O)CC(=O)O)cc4)cccc32)cc1 (some centres unmarked) [Example 681] | – | ≥ 50000 | 8.91 |
| CS(=O)(=O)c1cncc(COc2nc(O[C@H]3CCc4c(-c5cccc6c5CC[C@@H]6Oc5nc(OCc6cncc(S(C)(=O)=O)c6)c(CN6C[C@@H](O)CC6=O)cc5Cl)cccc43)c(Cl)cc2CNC[C@@H](O)CC(=O)O)c1 [Example 693] | – | 120 | 0.585 |
| CNC(=O)COc1nc(O[C@H]2CCc3c(-c4cccc(-c5ccc(OCCNC[C@@H](O)CC(=O)O)cc5)c4C)cccc32)c(Br)cc1CNC[C@@H](O)CC(=O)O [Example 754] | – | 434 | 0.091 |
| CNC(=O)COc1nc(O[C@H]2CCc3c(-c4cccc(-c5ccc(OCCNC[C@@H](O)CC(=O)O)cc5)c4C)cccc32)ccc1CNC[C@@H](O)CC(=O)O [Example 756] | – | 6590 | 1.16 |

More lines, now with the values ahead:

| AC50 (PD-L1) [nM] | EC50 (PD-1/PD-L1 interaction) [nM] | IC50 (PD-1/PD-L1) [nM] | SMILES |
| --- | --- | --- | --- |
| 206 | 201 | – | Cc1c(COc2nc(OCCCC#N)c(CNC[C@@H](O)CC(=O)O)cc2Br)cccc1-c1cccc(COc2nc(OCCCC#N)c(CNC[C@@H](O)CC(=O)O)cc2Br)c1C [Example 144, (3S,3′S)-4,4′-((((((2,2′-dimethyl-[1,1′-biphenyl]-3,3′-diyl)bis(methylene))bis(oxy))bis(5-bromo-2-(3-cyanopropoxy)pyridine-6,3-diyl))bis(methylene))bis(azanediyl))bis(3-hydroxybutanoic acid)] |
| ≥ 10000 | 60 | – | COc1nc(OCc2cccc(-c3cccc(COc4nc(OC)c(CNC[C@H](O)CC(=O)O)cc4Br)c3Cl)c2Cl)c(Br)cc1CNC[C@H](O)CC(=O)O [Example 191, (3R,3′R)-4,4′-((((((2,2′-Dichloro-[1,1′-biphenyl]-3,3′-diyl)bis(methylene))bis(oxy))bis(5-bromo-2-methoxypyridine-6,3-diyl))bis(methylene))bis(azanediyl))bis(3-hydroxybutanoic acid)] |
| 132 | 99 | – | N#Cc1cncc(COc2nc(OCc3cccc(-c4cccc(COc5nc(OCc6cncc(C#N)c6)c(CNC[C@@H](O)CC(=O)O)cc5Br)c4Cl)c3Cl)c(Br)cc2CNC[C@@H](O)CC(=O)O)c1 [Example 193, (3S,3′S)-4,4′-((((((2,2′-Dichloro-[1,1′-biphenyl]-3,3′-diyl)bis(methylene))bis(oxy))bis(5-bromo-2-((5-cyanopyridin-3-yl)methoxy)pyridine-6,3-diyl))bis(methylene))bis(azanediyl))bis(3-hydroxybutanoic acid)] |
| 223 | 151 | – | N#Cc1cncc(COc2nc(OCc3cccc(-c4cccc(COc5nc(OCc6cncc(C#N)c6)c(CNC[C@H](O)CC(=O)O)cc5Br)c4Cl)c3Cl)c(Br)cc2CNC[C@H](O)CC(=O)O)c1 [Example 196, (3R,3′R)-4,4′-((((((2,2′-Dichloro-[1,1′-biphenyl]-3,3′-diyl)bis(methylene))bis(oxy))bis(5-bromo-2-((5-cyanopyridin-3-yl)methoxy)pyridine-6,3-diyl))bis(methylene))bis(azanediyl))bis(3-hydroxybutanoic acid)] |
| 83.1 | 114 | – | Cc1c(COc2cc(OCc3cncc(C#N)c3)c(CNC[C@@H](O)CC(=O)O)cc2Cl)cccc1-c1cccc(-c2ccc3oc(CNC[C@@H](O)CC(=O)O)cc3c2)c1C [Example 210, (S)-4-(((5-(3′-((4-((((S)-3-carboxy-2-hydroxypropyl)amino)methyl)-2-chloro-5-((5-cyanopyridin-3-yl)methoxy)phenoxy)methyl)-2,2′-dimethyl-[1,1′-biphenyl]-3-yl)benzofuran-2-yl)methyl)amino)-3-hydroxybutanoic acid] |
| 423 | 145 | – | Cc1c(COc2cc(OCc3cc(C#N)ccn3)c(CNC[C@@H](O)CC(=O)O)cc2Cl)cccc1-c1cccc(COc2cc(OCc3cc(C#N)ccn3)c(CNC[C@@H](O)CC(=O)O)cc2Cl)c1C [Example 225, (3S,3′S)-4,4′-((((((2,2′-dimethyl-[1,1′-biphenyl]-3,3′-diyl)bis(methylene))bis(oxy))bis(5-chloro-2-((4-cyanopyridin-2-yl)methoxy)-4,1-phenylene))bis(methylene))bis(azanediyl))bis(3-hydroxybutanoic acid)] |
| 728 | 1100 | – | Cc1c(COc2cc(OCc3cncc(C#N)c3)c(CNC[C@@H](O)CC(=O)O)cc2Cl)cccc1-c1cccc(-c2ccc3cc(CNC[C@@H](O)CC(=O)O)ccc3n2)c1C [Example 398, (S)-4-(((2-(3′-((4-((((S)-3-carboxy-2-hydroxypropyl)amino)methyl)-2-chloro-5-((5-cyanopyridin-3-yl)methoxy)phenoxy)methyl)-2,2′-dimethyl-[1,1′-biphenyl]-3-yl)quinolin-6-yl)methyl)amino)-3-hydroxybutanoic acid] |
| – | 95 | 0.203 | Cc1c(COc2nc(OCc3cc(C#N)cc(C#N)c3)c(CNC[C@@H](O)CC(=O)O)cc2Br)cccc1-c1cccc(-c2ccc(OCCNC[C@@H](O)CC(=O)O)cc2)c1C [Example 515] |
| – | 181 | 0.836 | COc1nc(OCc2cccc(-c3cccc(COc4nc(OCc5cncc(C#N)c5)c(CNC[C@@H](O)CC(=O)O)cc4Br)c3C)c2C)c(Br)cc1CNC[C@@H](O)CC(=O)O [Example 586] |
| – | 95 | 0.064 | Cc1c(-c2ccc(OCCNC[C@@H](O)CC(=O)O)cc2)cccc1-c1cccc2c1CC[C@@H]2Oc1nc(OCc2cncc(C#N)c2)c(CNC[C@@H](O)CC(=O)O)cc1Cl [Example 675] |
| – | 62 | 0.064 | Cc1c(-c2ccc(OCCNC[C@@H](O)CC(=O)O)cc2)cccc1-c1cccc2c1CC[C@@H]2Oc1nc(OCc2cncc(C#N)c2)c(CNC[C@@H](O)CC(=O)O)cc1Br [Example 676] |
| – | 96 | 0.051 | CS(=O)(=O)c1cncc(COc2nc(O[C@H]3CCc4c(-c5cccc6c5CC[C@@H]6Oc5nc(OCc6cncc(S(C)(=O)=O)c6)c(CNC[C@@H](O)CC(=O)O)cc5Cl)cccc43)c(Cl)cc2CNC[C@@H](O)CC(=O)O)c1 [Example 694] |
| – | 35 | 0.064 | Cc1c(-c2ccc(OCCNC[C@@H](O)CC(=O)O)cc2)cccc1-c1cccc2c1CC[C@@H]2Oc1nc(OCc2cc(C#N)cc(C#N)c2)c(CNC[C@@H](O)CC(=O)O)cc1Br [Example 753] |
